In assay [1] the target is T1, EZH1/SUZ/EED (Homo sapiens, UniProt O75530+Q15022+Q92800).
T1 construct: purchased BPS 51006
Nature of the assay: Inhibitory effect on EZH1 by the MTase-Glo method (Test Example 1). The assay is classed as biochemical. As to conditions: EZH1/SUZ/EED 25 nM, H3 peptide 10 μM, SAM 3 μM, 30° C. 3 h, read-out: Test Example 1 WT EZH1 IC50. The method, boiled down:
(§1)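 EZH2/SUZ/EED (6.25 nM) or EZH1/SUZ/EED (25 nM) pre-incubated 15 min with compound in pH 7.6 Bicine buffer, 0.5% DMSO. Biotinylated H3(21-44) peptide 10 μM plus SAM 3 μM reacted 3 h at 30 °C; MTase-Glo luminescence normalized to controls, IC50 from variable-slope fit.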

In assay [2] the target is T2, EZH2/SUZ/EED (Homo sapiens, UniProt O75530+Q15022+Q15910).
T2 construct: purchased BPS 51003
Put plainly: Inhibitory effect on EZH2 by the MTase-Glo method (Test Example 1). The assay is classed as biochemical. The conditions noted are these: EZH2/SUZ/EED 6.25 nM, H3 peptide 10 μM, SAM 3 μM, 30° C. 3 h, read-out: Test Example 1 WT EZH2 IC50. The method in brief:
as §1

Assay [3] deals with H3K27Me3 methylation in Karpas-422 cells. Nature of the assay: H3K27Me3 cell method, inhibition of H3K27Me3 methylation (Test Example 2). The assay is classed as cell-based, human. As to conditions: Homo sapiens, KARPAS-422, 72 h. The method in brief: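 Karpas-422 cells, 15,000/well in 80% RPMI 1640 + 20% FBS, treated with compound dilutions (final DMSO 0.2%) for 3 days at 37 °C, 5% CO2. Cellular H3K27Me3 read by HTRF; viability in parallel by CCK8 at OD405. IC50 from log(inhibitor)-response variable-slope fit of inhibition rate.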

Assay [4] relates to Karpas-422 cells. Nature of the assay: Anti-proliferation by Cell Titer-Glo method (Test Example 3). The assay is classed as cell-based. The conditions noted are these: Homo sapiens. The method, then:
Karpas-422 (Nanjing Kebai, CBP60629) cells were seeded in a 96-well plate (Corning, 3894) at 1,000 cells per well in growth medium (80% 1640 (Hyclone, SH30809.01)+20% FBS (Corning, 35-081-CV)), in a total of 100 μL, and then was added with 25 μL of 5-fold different concentrations of compounds diluted in growth medium. The cell growth group without compound addition was used as a positive control (maximum signal control), and the medium was used as a negative control (minimum signal control), while ensuring that the final contration of DMSO in each reaction well was 0.2%. Then the 96-well cell plate was placed in a cell culture incubator (37° C., 5% CO2) and incubated for 3 days. On the fourth day, the cell culture plate was taken out of the incubator, using a row gun to gently blow the cells up and down to mix, removing 62.5 μL of the cell suspension, adding 50 μL of growth medium and 12.5 μL of compounds of 5 times different concentrations, and then putting them in the cell incubator to incubate for 4 days. On the eighth day, the same method was used as the fourth day to treat the cells, then incubating in the cell culture incubator for 3 days. On the eleventh day, the Cell-Titer Glo (Promega, G7573) was used to detect cell viability, and a microplate reader was used to detect the signal value of luminescence.
The inhibition rate of different concentrations of compounds on cells was calculated as inhibition rate=[1−(compound signal value−negative control signal value)/(positive control signal value-negative control signal value)][…]. The IC50 of the compound on cell activity inhibition was calculated by GraphPad Prism 6 with log(inhibitor) vs. response-Variable slope model fitting. The fitting equation is: Y=Bottom+(Top−Bottom)/(1+10^((Log IC50−X)*Hill Slope)), wherein Y represents the inhibition rate, and X represents the known concentration of the compound after Log.
(In general: ATP-based viability assays read luminescence as a measure of living cells.)

[5] abbreviates: Karpas-422 cells, 3 days incubation, HTRF signal, read-out: Test Example 2 H3K27Me3 inhibition (Karpas-422) IC50.
Where [6] appears, read: Karpas-422 cells, Cell-Titer Glo on the eleventh day, read-out: Test Example 3 Karpas-422 cell anti-proliferation IC50.
Where [7] appears, read: read-out: Test Example 2 H3K27Me3 inhibition (Karpas-422) IC50(nM).
The mark [8] stands for this setting: KARPAS-422, read-out: Test Example 3 Karpas-422 cell anti-proliferation IC50(nM).

Like-named read-outs stand apart in the source and are kept apart here. A value given as a limit tells only on which side of the number the result lay.

T2 sequence (Q15910 2-746 limits assumed): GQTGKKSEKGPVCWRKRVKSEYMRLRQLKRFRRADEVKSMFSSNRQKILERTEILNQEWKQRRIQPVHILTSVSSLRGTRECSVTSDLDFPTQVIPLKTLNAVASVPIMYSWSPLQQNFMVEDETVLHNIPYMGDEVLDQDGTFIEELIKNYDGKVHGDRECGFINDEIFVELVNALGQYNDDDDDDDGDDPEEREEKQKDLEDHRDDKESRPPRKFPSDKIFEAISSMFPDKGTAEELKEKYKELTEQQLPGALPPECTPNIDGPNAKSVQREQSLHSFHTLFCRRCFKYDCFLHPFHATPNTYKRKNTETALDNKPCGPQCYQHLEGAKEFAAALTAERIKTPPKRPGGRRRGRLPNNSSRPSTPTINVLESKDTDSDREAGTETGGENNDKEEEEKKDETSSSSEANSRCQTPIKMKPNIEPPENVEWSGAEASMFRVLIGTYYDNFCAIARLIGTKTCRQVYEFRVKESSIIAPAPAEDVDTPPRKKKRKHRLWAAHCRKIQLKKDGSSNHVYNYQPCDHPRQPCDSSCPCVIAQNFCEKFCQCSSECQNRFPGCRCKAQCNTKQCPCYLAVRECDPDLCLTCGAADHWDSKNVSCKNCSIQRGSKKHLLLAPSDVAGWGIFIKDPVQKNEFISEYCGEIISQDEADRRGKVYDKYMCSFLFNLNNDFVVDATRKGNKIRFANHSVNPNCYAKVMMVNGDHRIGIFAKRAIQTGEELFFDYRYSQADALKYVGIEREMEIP
T2 sequence (Q15022 2-739 partner limits assumed): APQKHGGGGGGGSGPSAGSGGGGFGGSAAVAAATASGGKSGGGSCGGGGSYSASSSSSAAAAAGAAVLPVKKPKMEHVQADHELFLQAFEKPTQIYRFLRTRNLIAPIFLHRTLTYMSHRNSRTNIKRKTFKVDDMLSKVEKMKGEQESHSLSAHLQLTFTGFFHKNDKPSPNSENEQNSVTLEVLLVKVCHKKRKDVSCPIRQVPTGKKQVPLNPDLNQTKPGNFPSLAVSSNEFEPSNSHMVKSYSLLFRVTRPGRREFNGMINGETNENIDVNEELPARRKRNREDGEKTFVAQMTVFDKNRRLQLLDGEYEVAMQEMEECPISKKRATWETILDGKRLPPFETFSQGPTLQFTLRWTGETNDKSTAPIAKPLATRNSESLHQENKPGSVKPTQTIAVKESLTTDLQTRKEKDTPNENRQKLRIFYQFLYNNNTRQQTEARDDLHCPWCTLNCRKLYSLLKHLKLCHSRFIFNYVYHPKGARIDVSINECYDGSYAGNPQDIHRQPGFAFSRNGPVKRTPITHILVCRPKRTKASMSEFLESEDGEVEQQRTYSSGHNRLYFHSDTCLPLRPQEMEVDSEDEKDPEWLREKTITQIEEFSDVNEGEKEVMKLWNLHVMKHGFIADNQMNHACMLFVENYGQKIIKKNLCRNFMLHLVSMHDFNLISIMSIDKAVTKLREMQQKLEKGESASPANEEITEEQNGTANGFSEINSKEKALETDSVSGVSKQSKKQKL
T2 sequence (O75530 2-441 partner limits assumed): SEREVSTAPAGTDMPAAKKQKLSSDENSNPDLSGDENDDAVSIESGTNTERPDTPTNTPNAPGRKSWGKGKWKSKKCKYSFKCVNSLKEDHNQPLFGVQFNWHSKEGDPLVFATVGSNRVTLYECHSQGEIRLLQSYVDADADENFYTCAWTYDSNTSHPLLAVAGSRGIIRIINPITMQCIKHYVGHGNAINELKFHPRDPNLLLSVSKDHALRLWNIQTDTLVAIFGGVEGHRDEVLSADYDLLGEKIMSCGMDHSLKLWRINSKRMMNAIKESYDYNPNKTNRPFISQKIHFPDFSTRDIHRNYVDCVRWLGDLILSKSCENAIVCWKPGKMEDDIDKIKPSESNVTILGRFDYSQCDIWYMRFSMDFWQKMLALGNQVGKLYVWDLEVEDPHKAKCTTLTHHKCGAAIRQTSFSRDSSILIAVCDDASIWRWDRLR
T1 sequence (Q92800 2-747 limits assumed): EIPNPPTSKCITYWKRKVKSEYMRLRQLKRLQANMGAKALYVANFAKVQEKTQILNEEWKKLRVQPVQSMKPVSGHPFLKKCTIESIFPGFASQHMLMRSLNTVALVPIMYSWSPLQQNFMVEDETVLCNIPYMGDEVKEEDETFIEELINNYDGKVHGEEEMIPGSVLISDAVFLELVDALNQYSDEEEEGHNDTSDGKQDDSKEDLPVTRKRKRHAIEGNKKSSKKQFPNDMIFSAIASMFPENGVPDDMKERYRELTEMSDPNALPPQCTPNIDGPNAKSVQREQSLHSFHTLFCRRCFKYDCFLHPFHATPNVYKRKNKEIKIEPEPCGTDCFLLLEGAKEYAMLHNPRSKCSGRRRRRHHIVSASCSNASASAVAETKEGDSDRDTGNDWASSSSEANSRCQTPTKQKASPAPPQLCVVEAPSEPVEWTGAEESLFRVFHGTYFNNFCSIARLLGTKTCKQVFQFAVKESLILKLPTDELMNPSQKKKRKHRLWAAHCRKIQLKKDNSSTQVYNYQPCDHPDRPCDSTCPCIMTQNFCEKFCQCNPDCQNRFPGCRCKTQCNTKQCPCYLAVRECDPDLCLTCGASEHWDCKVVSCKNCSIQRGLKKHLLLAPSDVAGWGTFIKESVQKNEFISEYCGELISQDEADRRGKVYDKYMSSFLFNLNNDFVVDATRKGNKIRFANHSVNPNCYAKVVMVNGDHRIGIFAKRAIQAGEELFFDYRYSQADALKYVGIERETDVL
T1 sequence (Q15022 2-739 partner limits assumed): as the sequence (Q15022 2-739 partner limits assumed) above
T1 sequence (O75530 2-441 partner limits assumed): as the sequence (O75530 2-441 partner limits assumed) above

As to `Cc1cc(C)c(CNC(=O)c2cc(Cl)c3c(c2C)OC[C@@H]([C@H]2CC[C@@H](N(C)C)CC2)O3)c(=O)[nH]1` [Compound 55], the IC50 was found to be 150 nM in assay [1], 4.5 nM in assay [2], 19.4 nM in assay [3] (setting [5]) and 47.3 nM in assay [4] (setting [6]).

With `Cc1cc(C)c(CNC(=O)c2cc(Cl)c3c(c2C)OC[C@H]([C@H]2CC[C@@H](N(C)C)CC2)O3)c(=O)[nH]1` [Compound 56], the IC50 in assay [1] was 810 nM; in assay [2], 340 nM; in assay [3] (setting [5]) it was 944 nM; in assay [4] (setting [6]), above 1000 nM.

Regarding `Cc1cc(C)c(CNC(=O)c2cc(Cl)c3c(c2C)OC(C2CCC(N4CCCC4)CC2)CO3)c(=O)[nH]1` (stereo not drawn) [Compound 63], the IC50 in assay [1] worked out at 375 nM; in assay [2], 11.5 nM; in assay [3] (setting [5]), 616 nM; in assay [4] (setting [6]), 341 nM.

For `COc1cc(C)[nH]c(=O)c1CNC(=O)c1cc(Cl)c2c(c1C)O[C@@H]([C@H]1CC[C@@H](N(C)C)CC1)CO2` [Compound 94], the IC50 amounted to 8.1 nM in assay [1], 3 nM in assay [2], 2.8 nM in assay [3] (setting [5]) and 5.1 nM in assay [4] (setting [6]).

Regarding `COc1cc(C)[nH]c(=O)c1CNC(=O)c1cc(Cl)c2c(c1C)O[C@@H]([C@H]1CC[C@@H](N3CC(OC)C3)CC1)CO2` [Compound 97], the IC50 in assay [1] amounted to 15.2 nM; in assay [2], 3.25 nM; in assay [3] (setting [5]), 8.2 nM; in assay [4] (setting [6]), 5.3 nM.

`COCCOC1CN([C@H]2CC[C@@H]([C@H]3COc4c(Cl)cc(C(=O)NCc5c(OC)cc(C)[nH]c5=O)c(C)c4O3)CC2)C1` [Compound 101]: the IC50 in assay [1] is 5.5 nM; in assay [2], 3.1 nM; in assay [3] (setting [5]), 2.2 nM; in assay [4] (setting [6]), 3.8 nM.

As for `COc1cc(C)[nH]c(=O)c1CNC(=O)c1cc(Cl)c2c(c1C)O[C@@H]([C@H]1CC[C@@H](N3CC(OCCF)C3)CC1)CO2` [Compound 109], the IC50 turned out to be 3.8 nM in assay [1], 2 nM in assay [2], 1.8 nM in assay [3] (setting [5]) and 2.5 nM in assay [4] (setting [6]).

For the compound `Cc1cc(C)c(CNC(=O)c2c(C)c3c(c(Cl)c2F)OC[C@H](C2CCC(N(C)C)CC2)O3)c(=O)[nH]1` (stereo partly drawn) [Compound 130], the IC50 in assay [1] was determined as 201 nM; in assay [2], 12.6 nM; in assay [3] (setting [7]), 209 nM; in assay [4] (setting [8]), 115 nM.

`Cc1cc(C)c(CNC(=O)c2cc(Cl)c3c(c2Cl)O[C@@H]([C@H]2CC[C@@H](N(C)C)CC2)CO3)c(=O)[nH]1` [Compound 143]: the IC50 in assay [1] was determined as 39.9 nM; in assay [2] it was 5.5 nM; in assay [3] (setting [7]), 22 nM; in assay [4] (setting [8]), 10.7 nM.

As for `COC1CN([C@H]2CC[C@@H]([C@H]3COc4c(Cl)cc(C(=O)NCc5c(SC)cc(C)[nH]c5=O)c(Cl)c4O3)CC2)C1` [Compound 149], the IC50 in assay [1] was 3.3 nM; in assay [2], 2.3 nM; in assay [3] (setting [5]), 3.6 nM; in assay [4] (setting [6]), 2.7 nM.

Turning to `COC1CN([C@H]2CC[C@@H]([C@H]3COc4c(C#N)cc(C(=O)NCc5c(SC)cc(C)[nH]c5=O)c(C)c4O3)CC2)C1` [Compound 153], the IC50 in assay [1] is 6.9 nM; in assay [2] it was 3.2 nM; in assay [3] (setting [5]), 6.2 nM; in assay [4] (setting [6]), 3.7 nM.

Take `CSc1cc(C)[nH]c(=O)c1CNC(=O)c1cc(C#N)c2c(c1C)O[C@@H]([C@H]1CC[C@@H](N3CC(OC4CC4)C3)CC1)CO2` [Compound 159]: the IC50 is 7 nM in assay [1], 1.1 nM in assay [2], 1.4 nM in assay [3] (setting [5]) and 2.3 nM in assay [4] (setting [6]).

Regarding `CSc1cc(C)[nH]c(=O)c1CNC(=O)c1cc(C#N)c2c(c1C)O[C@@H]([C@H]1CC[C@@H](N3CC(OCCF)C3)CC1)CO2` [Compound 161], the IC50 came out at 5.5 nM in assay [1], 3.7 nM in assay [2], 2.2 nM in assay [3] (setting [5]) and 2.4 nM in assay [4] (setting [6]).

As for `COC1CN([C@H]2CC[C@@H]([C@H]3COc4c(F)cc(C(=O)NCc5c(SC)cc(C)[nH]c5=O)c(C)c4O3)CC2)C1` [Compound 169], the IC50 in assay [1] came to 5.8 nM; in assay [2] it was 6 nM; in assay [3] (setting [5]), 4.2 nM; in assay [4] (setting [6]), 1.8 nM.

For `COC1CN([C@H]2CC[C@@H]([C@H]3COc4c(Cl)cc(C(=O)NCc5c(Cl)cc(C)[nH]c5=O)c(C)c4O3)CC2)C1` [Compound 175], the IC50 in assay [1] was 16.6 nM; in assay [2], 3.4 nM; in assay [3] (setting [5]), 16.1 nM; in assay [4] (setting [6]) it was 13.6 nM.
